Results on 3 compounds are retold here after patent US20240156972A1 (priority 2021, published 2024).

Data set [1] relates to PSMA-expressing human embryonic kidney (HEK) cells. The data set is described as follows: ARM 1.2-mediated ADCP by U937 human monocytes, 2-color flow cytometry. It is filed as cell-based. On the procedure:
ADCP of PSMA-expressing human cells by human monocytes was assessed in the presence of ARM 1.2 and anti-gD1 mouse IgG2a antibody (FIG. 12). ADCP was determined by 2-color flow cytometry assays, where target cell phagocytosis was measured by double positive cell events consisting of FL-1 dye-labeled U937 human monocytes and FL-4 dye-labeled engineered human embryonic kidney (HEK) cells expressing PSMA.
Robust ADCP was only observed when cell surface PSMA and anti-HSV antibody are both present (HEK+_EXP).
For orientation: Flow cytometry measures light scatter and fluorescence of single cells or particles in a stream.

Data set [2] can be described thus: Stability of aryl sulfonyl fluoride group in PBS by 19F NMR. The class given is physicochemical. The following applies: PBS (90% PBS), 10% D2O, room temperature, F− appearance, read-out: half-life of sulfonyl fluoride hydrolysis (converted). The procedure:
A 700 MHz NMR was used to measure ^19F NMR spectra. Bruker TopSpin 4.0.9 was used to process and analyze spectra. GraphPad Prism 8 software was used to visualize and perform non-linear regression of acquired data.
Peptide 7 (ASF-gDR) was used to investigate the stability of the meta-aryl sulfonyl fluoride (ASF) group in 1×PBS at room temperature. The sample was prepared at a 0.5 mM concentration in 90% PBS, 10% D2O. A 700 MHz NMR was used to monitor sulfonyl fluoride disappearance and fluoride (F^− (aq)) appearance overtime, relative to a TFA internal standard. To quantify fluoride loss and gain, peaks were positively phased and integrated relative to the TFA internal standard, which was held constant at three fluoride atoms. A plot of fluoride leaving group appearance over time was fitted with the first order decay equation.
Half-life was calculated from a plot of integrated F^− over time using Equation 1.

Data set [3] is described as follows: Stability of covalent antibody-binding peptides in 1×PBS by LC-HRMS. The class given is physicochemical. Particulars: 500 μM, room temperature. The procedure:
Liquid chromatography-high resolution mass spectrometry (LC-HRMS) data was obtained on a BRUKER MicroTOF II mass spectrometer. Samples were dissolved in 1×PBS at 500 μM concentrations and were monitored for stability at room temperature over indicated periods of time. Specific m/z −20 amu (loss of H^+ and F^−) and m/z −2 amu (F/OH exchange) masses were monitored to probe off-pathway cyclization and hydrolysis reactions, respectively.
To evaluate the stability of peptide 5 (gDR(F10FSY)), the peptide (500 μM) was incubated in 1×PBS at room temperature and analyzed by LC-HRMS at 0, 24, 48 and 72 hours (FIG. 83). […] Hydrolyzed peptide appeared to elute just before intact peptide after 3 days of incubation.
To evaluate the stability of peptide 7 (ASF-gDR), the peptide (500 μM) was incubated in 1×PBS at room temperature and analyzed by LC-HRMS at 0, 24, 48 and 72 hours.

Numbered stars: 1 amine (or outer) side, 2 acyl side, 3 side chain; on linkers, the order of the positions; unused ones are H or OH. Square brackets hold non-standard residues; d marks the D form. Peptide text beside a SMILES is read from it. X1 = O=C(C(Cc1cccc(S(=O)(=O)F)c1)N[*:1])[*:2]; Lys(N3) = [N-]=[N+]=NCCCC[C@H](N)C(=O)O; X2 = N=C(N)CCCC[C@H](N[*:1])C(=O)[*:2]; Y‑OSO2F = fluorosulfate Tyr; N3‑K = azido-Lys

For the compound `CSCC[C@H](NC(=O)[C@@H](C)NC(=O)[C@@H](CC(=O)O)NC(=O)[C@H]1CCCN1C(=O)[C@@H](CC(N)=O)NC(=O)[C@H](CCCNC(=N)N)NC(=O)[C@@H](Cc1ccccc1)NC(=O)[C@H](CCCNC(=N)N)NC(=O)CNC(=O)[C@H](CCCCN)NC(=O)[C@@H](CC(=O)O)NC(=O)[C@H](CC(C)C)NC(=O)[C@H](CCCCn1cc(COCCOCCOCCOCCOCCOCCOCCOCCNC(=O)NCCCC[C@H](NC(=O)N[C@@H](CCC(=O)O)C(=O)O)C(=O)O)nn1)NC(C)=O)C(=O)N[C@H](CCCCN)C(=O)N[C@@H](CC(C)C)C(N)=O` [ARM 1.2, GUL-PEG8-HSVqD1], the ADCP entry in data set [1] (HEK+_EXP: cell surface PSMA and anti-HSV antibody both present) is reported as “Robust ADCP”. Further, the “ADCP in control samples” value in data set [1] (isotype IgG, no antibody, free competitor, or HEK cells without PSMA) is recorded as “complete lack of ADCP”. By half-life is commonly meant the time in which the quantity being followed falls by half. `CSCC[C@H](NC(=O)[C@H](CCCCC(=N)N)NC(=O)[C@H](CC(C)C)NC(=O)[C@H](CCCCN=[N+]=[N-])NC(=O)C(Cc1cccc(S(=O)(=O)F)c1)NC(C)=O)C(=O)N[C@@H](C)C(=O)N[C@@H](CC(=O)O)C(=O)N1CCC[C@H]1C(=O)N[C@@H](CC(N)=O)C(=O)N[C@@H](CCCNC(=N)N)C(=O)N[C@@H](Cc1ccccc1)C(=O)N[C@@H](CCCNC(=N)N)C(=O)NCC(=O)N[C@@H](CCCNC(=N)N)C(=O)N[C@@H](CC(=O)O)C(=O)N[C@@H](CC(C)C)C(N)=O` (some centres unmarked) [Peptide 7] (Ac-[X1][Lys(N3)]L[X2]MADPNRFRGRDL-NH2): the half-life at 0.5 mM in data set [2] is 8.71 h. Further, in data set [3] (after 24 hours), the SuFEx hydrolysis is about 50%. With “Ac-(N3-K)-LRMADPNR-(Y-OSO2F)-RGRDL ({Ac-N3‑K}-LRMADPNR-{Y‑OSO2F-Arg-Gly-Arg-Asp-Leu-NH2}) [Peptide 5]”, the “stability by LC-HRMS” value in data set [3] (0-72 hours) is recorded as “stable compound”.
